These results are taken from patent US10364238B2, “N-((het) arylmethyl)-heteroaryl-carboxamides compounds as plasma kallikrein inhibitors” (KALVISTA PHARMACEUTICALS LIMITED, priority 2014, dated 2019).

Holding throughout (format): biochemical
The target of one experiment is Human plasma kallikrein (Homo sapiens (Human), UniProt P03952). In words: Determination of the IC50 for plasma kallikrein. Conditions: 25° C., fluorogenic substrate H-DPro-Phe-Arg-AFC; read-out: IC50 (human PKaI). As to the method:
Determination of the IC50 for Plasma Kallikrein
Human plasma kallikrein (Protogen) was incubated at 25° C. with the fluorogenic substrate H-DPro-Phe-Arg-AFC and various concentrations of the test compound. Residual enzyme activity (initial rate of reaction) was determined by measuring the change in […] at 410 nm and the IC50 value for the test compound was determined.

A further experiment addresses Human KLK1 (Homo sapiens (Human), UniProt P06870). The experiment can be described thus: Determination of the IC50 for KLK1. Conditions: 25° C., fluorogenic substrate H-DVal-Leu-Arg-AFC. As to the method: Determination of the IC50 for KLK1
Human KLK1 (Callbiochem) was incubated at 25° C. with the fluorogenic substrate H-DVal-Leu-Arg-AFC and various concentrations of the test compound. Residual enzyme activity (initial rate of reaction) was determined by measuring the change in […] at 410 nm and the IC50 value for the test compound was determined.

The target of a further experiment is Human FXIa (Homo sapiens (Human), UniProt P03951). The experiment can be described thus: Determination of the % inhibition for FXIa. Conditions: 40 μM test compound, 25° C., substrate Z-Gly-Pro-Arg-AFC. As to the method: Determination of the % Inhibition for FXIa
Human FXIa (Enzyme Research Laboratories) was incubated at 25° C. with the fluorogenic substrate Z-Gly-Pro-Arg-AFC and 40 μM of the test compound. Residual enzyme activity (initial rate of reaction) was determined by measuring the change in […].

pIC50: −log10 of the molar value.

Human plasma kallikrein, sequence (P03952 391-638): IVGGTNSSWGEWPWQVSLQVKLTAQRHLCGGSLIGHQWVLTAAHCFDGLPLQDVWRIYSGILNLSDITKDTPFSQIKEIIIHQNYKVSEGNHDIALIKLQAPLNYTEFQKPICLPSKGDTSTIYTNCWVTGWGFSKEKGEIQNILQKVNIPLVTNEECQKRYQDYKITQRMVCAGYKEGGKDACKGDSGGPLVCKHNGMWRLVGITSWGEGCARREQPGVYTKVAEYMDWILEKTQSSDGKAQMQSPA
Human plasma kallikrein, sequence (P03952 20-390 partner): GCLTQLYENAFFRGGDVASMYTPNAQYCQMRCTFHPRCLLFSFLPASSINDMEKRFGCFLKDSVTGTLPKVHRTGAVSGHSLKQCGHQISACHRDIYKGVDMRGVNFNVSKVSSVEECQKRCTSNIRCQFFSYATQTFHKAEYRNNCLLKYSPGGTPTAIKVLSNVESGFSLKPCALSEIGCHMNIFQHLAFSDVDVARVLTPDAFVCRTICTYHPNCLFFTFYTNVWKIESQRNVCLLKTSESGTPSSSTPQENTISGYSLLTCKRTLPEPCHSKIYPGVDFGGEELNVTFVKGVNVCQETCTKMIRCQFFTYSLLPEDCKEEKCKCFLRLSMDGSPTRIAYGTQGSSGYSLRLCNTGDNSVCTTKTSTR
Human FXIa, sequence (P03951 388-625): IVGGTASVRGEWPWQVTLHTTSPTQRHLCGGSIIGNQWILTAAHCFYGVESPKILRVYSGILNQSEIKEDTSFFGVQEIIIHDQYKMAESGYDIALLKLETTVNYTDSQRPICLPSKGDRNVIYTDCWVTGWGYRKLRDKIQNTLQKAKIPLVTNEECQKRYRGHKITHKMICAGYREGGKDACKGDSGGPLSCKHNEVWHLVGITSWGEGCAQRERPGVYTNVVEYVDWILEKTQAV
Human FXIa, sequence (P03951 19-387 partner): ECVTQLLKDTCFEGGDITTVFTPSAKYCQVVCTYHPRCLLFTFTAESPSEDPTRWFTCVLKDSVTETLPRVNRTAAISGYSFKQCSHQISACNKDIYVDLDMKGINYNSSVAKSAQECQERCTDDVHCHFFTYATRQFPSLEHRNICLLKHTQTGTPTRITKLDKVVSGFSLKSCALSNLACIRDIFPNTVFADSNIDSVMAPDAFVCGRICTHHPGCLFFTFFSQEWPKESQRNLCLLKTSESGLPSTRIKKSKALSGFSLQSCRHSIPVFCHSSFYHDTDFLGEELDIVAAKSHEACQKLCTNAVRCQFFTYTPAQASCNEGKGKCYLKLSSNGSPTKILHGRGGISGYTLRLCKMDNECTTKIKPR
Human KLK1, sequence (P06870 25-262): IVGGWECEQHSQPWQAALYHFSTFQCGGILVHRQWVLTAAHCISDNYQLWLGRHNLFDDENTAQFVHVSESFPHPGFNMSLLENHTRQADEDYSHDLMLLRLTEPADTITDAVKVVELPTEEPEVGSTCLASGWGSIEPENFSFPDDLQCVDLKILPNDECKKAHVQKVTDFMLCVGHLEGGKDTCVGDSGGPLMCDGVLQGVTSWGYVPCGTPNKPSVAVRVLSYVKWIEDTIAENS

Consider `Nc1nn(Cc2ccc(Cn3ccccc3=O)cc2)cc1C(=O)NCc1c(F)cccc1C(F)(F)F` [Example 70, 3-amino-N-{[2-fluoro-6-(trifluoromethyl)phenyl]methyl}-1-({4-[(2-oxopyridin-1-yl)methyl]phenyl}methyl)pyrazole-4-carboxamide], for which the values for the pIC50 at Human plasma kallikrein and against Human KLK1 were 7.57 and under 5.00, respectively. The same compound had an inhibition at 40 µM on Human FXIa of 6%.
In the same order, the values of `COCc1nn(Cc2ccc(Cn3ccccc3=O)cc2)cc1C(=O)NCc1c(C)cccc1F` [Example 97, N-[(2-fluoro-6-methylphenyl)methyl]-3-(methoxymethyl)-1-({4-[(2-oxopyridin-1-yl)methyl]phenyl}methyl)pyrazole-4-carboxamide] are 6.82, under 5.00 and 0%.
In the same order, the values of `COCc1nn(Cc2ccc(Cn3ccccc3=O)cc2)cc1C(=O)NCc1cc(F)ccc1F` [Example 94, N-[(2,5-difluorophenyl)methyl]-3-(methoxymethyl)-1-({4-[(2-oxopyridin-1-yl)methyl]phenyl}methyl)pyrazole-4-carboxamide] are 6.11, under 5.00 and 0%.
The corresponding values for `COCc1nn(Cc2ccc(Cn3ccccc3=O)cc2)cc1C(=O)NCc1cc(F)cc(OC)c1` [Example 95, N-[(3-fluoro-5-methoxyphenyl)methyl]-3-(methoxymethyl)-1-({4-[(2-oxopyridin-1-yl)methyl]phenyl}methyl)pyrazole-4-carboxamide] are 6.51, under 4.40 and 1%.
Turning to `Nc1nn(Cc2ccc(Cn3ccccc3=O)cc2)cc1C(=O)NCc1ccc(OC(F)(F)F)cc1` [Example 58, 3-amino-1-({4-[(2-oxopyridin-1-yl)methyl]phenyl}methyl)-N-{[4-(trifluoromethoxy)phenyl]methyl}pyrazole-4-carboxamide], the pIC50 on Human plasma kallikrein was 5.24; against Human KLK1, under 5.00. The “% Inhibition @ 40 μM (human FXIa)” value at Human FXIa is on record as 0%.
`COCc1nn(Cc2ccc(Cn3ccccc3=O)cc2)cc1C(=O)NCc1cc(F)cc(OC)c1F` [Example 96, N-[(2,5-difluoro-3-methoxyphenyl)methyl]-3-(methoxymethyl)-1-({4-[(2-oxopyridin-1-yl)methyl]phenyl}methyl)pyrazole-4-carboxamide]: the results for the pIC50 at Human plasma kallikrein and against Human KLK1 were 7.12 and under 4.40, respectively. Also, the inhibition at 40 µM against Human FXIa is 0%.
In the same order, the values of `COCc1nn(Cc2ccc(Cn3ccccc3=O)cc2)cc1C(=O)NCc1cc(OC)ccc1C(F)(F)F` [Example 79, N-{[5-methoxy-2-(trifluoromethyl)phenyl]methyl}-3-(methoxymethyl)-1-({4-[(2-oxopyridin-1-yl)methyl]phenyl}methyl)pyrazole-4-carboxamide] are 7.83, under 4.40 and 2%.
The corresponding values for `Nc1nn(Cc2ccc(Cn3ccccc3=O)cc2)cc1C(=O)NCc1cccc(O)c1F` [Example 130, 3-amino-N-[(2-fluoro-3-hydroxyphenyl)methyl]-1-({4-[(2-oxopyridin-1-yl)methyl]phenyl}methyl)pyrazole-4-carboxamide] are 6.76, under 4.40 and 0%.
The corresponding values for `COCc1nn(Cc2ccc(Cn3ccccc3=O)cc2)cc1C(=O)NCc1cccc(OC(F)F)c1` [Example 91, N-{[3-(difluoromethoxy)phenyl]methyl}-3-(methoxymethyl)-1-({4-[(2-oxopyridin-1-yl)methyl]phenyl}methyl)pyrazole-4-carboxamide] are 6.28, under 5.00 and 0%.
For the compound `COc1cccc(CNC(=O)c2cn(Cc3ccc(Cn4ccccc4=O)cc3)c(C(F)(F)F)n2)c1F` [Example 124, N-[(2-fluoro-3-methoxyphenyl)methyl]-1-({4-[(2-oxopyrldin-1-yl)methyl]phenyl}methyl)-2-(trifluoromethyl)imidazole-4-carboxamide], the pIC50 is 6.72 on Human plasma kallikrein and under 5.00 on Human KLK1. Moreover, on Human FXIa, the inhibition at 40 µM was found to be 0%.
In the same order, the values of `CCc1cccc(CNC(=O)c2cn(Cc3ccc(Cn4ccccc4=O)cc3)nc2COC)c1F` [Example 132, N-[(3-ethyl-2-fluorophenyl)methyl]-3-(methoxymethyl)-1-({4-[(2-oxopyridin-1-yl)methyl]phenyl}methyl)pyrazole-4-carboxamide] are 6.87, under 4.40 and 0%.
The corresponding values for `COCc1nn(Cc2ccc(Cn3ccccc3=O)cc2)cc1C(=O)NCc1c(F)ccc(Cl)c1F` [Example 73, N-[(3-chloro-2,6-difluorophenyl)methyl]-3-(methoxymethyl)-1-({4-[(2-oxopyridin-1-yl)methyl]phenyl}methyl)pyrazole-4-carboxamide] are 6.92, under 5.00 and 8%.
The corresponding values for `COCc1nn(Cc2ccc(Cn3ccc(C)cc3=O)cc2)cc1C(=O)NCc1c(F)ccc(OC)c1F` [Example 106, N-[(2,6-difluoro-3-methoxyphenyl)methyl]-3-(methoxymethyl)-1-({4-[(4-methyl-2-oxopyridin-1-yl)methyl]phenyl}methyl)pyrazole-4-carboxamide] are 6.85, under 5.00 and 2%.
`COCc1nn(Cc2ccc(Cn3ccccc3=O)cc2)cc1C(=O)NCc1cccc(OC)c1C(F)F` [Example 69, N-{[2-(difluoromethyl)-3-methoxyphenyl]methyl}-3-(methoxymethyl)-1-({4-[(2-oxopyridin-1-yl)methyl]phenyl}methyl)pyrazole-4-carboxamide]: the pIC50 is 7.77 at Human plasma kallikrein and under 4.40 against Human KLK1. At Human FXIa, this compound came in with an inhibition at 40 µM of 0%.
The corresponding values for `COCc1nn(Cc2ccc(Cn3ccccc3=O)cc2)cc1C(=O)NCc1cc(Cl)cc(OC)c1` [Example 67, N-[(3-chloro-5-methoxyphenyl)methyl]-3-(methoxymethyl)-1-({4-[(2-oxopyridin-1-yl)methyl]phenyl}methyl)pyrazole-4-carboxamide] are 6.41, under 5.00 and 0%.
The corresponding values for `COCc1nn(Cc2ccc(Cn3ccncc3=O)cc2)cc1C(=O)NCc1cccc(OC)c1F` [Example 104, N-[(2-fluoro-3-methoxyphenyl)methyl]-3-(methoxymethyl)-1-({4-[(2-oxopyrazin-1-yl)methyl]phenyl}methyl)pyrazole-4-carboxamide] are 6.16, under 5.00 and 0%.
Turning to `COc1cccc(CNC(=O)c2cn(Cc3ccc(Cn4ccccc4=O)cc3)nc2NC(C)=O)c1F` [Example 71, 3-acetamido-N-[(2-fluoro-3-methoxyphenyl)methyl]-1-({4-[(2-oxopyridin-1-yl)methyl]phenyl}methyl)pyrazole-4-carboxamide], the figures for the pIC50 on Human plasma kallikrein and against Human KLK1 were 6.52 and under 5.00, respectively. On Human FXIa, this compound gave an inhibition at 40 µM of 0%.
